Columns and labels:
microglia [1] = test: Suppression of microglia in 2D primary astrocytic cultures; type: cell-based, mice
From the text: In addition to primary microglia, an immortalized microglial cell line (N9) was also used. It was noted that this line has a fast proliferation rate and appeared to suppress neuronal cultures, so primary cell lines were maintained as a source of microglia. In general, it is thought that microglia inhibit growth of astrocytic populations. Microglia proliferation is strictly regulated by colony-stimulating factor 1 and its receptor on microglia membranes. Without wishing to be held to a particular theory, it was contemplated that if the receptor for CSF1 growth factor was inhibited, the growth of microglia in astrocytic population would be inhibited. Accordingly, a 2 week experiment was performed in two dimensional (2D) culture conditions to see if microglial growth could be inhibited. For this experiment, the glial media that was supplied with 1 uM supplement of CSF1R inhibitors was used. Media was changed every second day in 96 well plates with 10.000 mice primary astrocytic cultures. […] Number of microglia was determined in cells treated with CSF1R inhibitor or control (FIG. 1, panel N) and further evaluated via WST-1 assay (FIG. 1, panel O).

microglia [2] = test: Microglia activation with LPS treatment; type: cell-based, rat/mouse; settings: 100 ng/mL LPS; 3 days
Protocol: DAPI was used as a nuclear counterstain. Microglia were also assessed for their ability to activate upon or following treatment with lipopolysaccharide (LPS) (FIG. 1, panel G), and further analyzed post-treatment for expression of inducible nitric oxide synthase (iNOS) (FIG. 1, panel H) and interleukin 1-beta (IL1-beta) (FIG. 1, panel I). Microglia activation ability with LPS (lipopolysaccharide) treatment was performed with 100 ng/mL of LPS to activate microglia cells (20,000 cells per well, 96 well plate).

[3] = system: hiPSC derived 3D neural culture; test: Local field potential recordings of hiPSC-derived 3D neural culture with activity inhibitors; type: cell-based, human; settings: for spontaneous and inducible activity (LFP): CNQX 50 μM, AP5 250 μM together
[4] = system: primary murine striatal neurons, astrocytes, and microglia; test: 3D tri-culture intracerebral hemorrhage model with necrostatin-1 treatment; type: cell-based, mouse; settings: for total cell number / DNA content (DNA quantification): nec-1 conditions, 24 hour; for ROS / reactive species level vs untreated samples: nec-1 groups, 4 hours post-injury, 250 mol/mL nec-1 for 15 minutes prior to injury
Protocol: Hemorrhage injuries were performed at the Neuroscience Center at Massachusetts General Hospital. Samples were transported to the Center, incubated for one hour at 37° C., and then injected with 10 μL of mouse blood and incubated for another hour before being returned to the Tufts University Biomedical Engineering Department. Samples were evaluated at 4 and 24 hours post-injury. For necrostatin-1 treatment, samples were incubated with […] necrostatin-1 for 15 minutes prior to performing a hemorrhage injury.
For all studies, groups included: untreated controls, sham, sham plus nec-1 treatment, hemorrhage (ICH) or ICH plus nec-1 treatment samples.
Cell viability was assessed with a Live/Dead assay, which uses a mixture of calcein and propidium iodide stains (1.2 μL of calcein (reconstituted in DMSO) and 10 μL of propidium iodide (“PI”) per 1 mL of final stain solution). Samples were washed with PBS 2-3 times and any remaining PBS was aspirated. Sponges were transferred to a 96 well plate, 100 μL of calcein/PI stain solution was added to each sample, and they were incubated at 37° C., covered in aluminum foil for 30 minutes. The stain solution was then aspirated, samples were washed with PBS 2-3 times, and then imaged using a confocal microscop with lasers of wavelengths of […] (to detect calcein staining) and […] (to detect PI staining).
DNA was quantified using a PicoGreen assay. To prepare samples for DNA quantification, they were first washed once with PBS, followed by addition of 100 μL of 0.05% Triton-X to cover the sponge. Samples were stored at −20° C. until use. For measurements, samples were thawed at room temperature and homogenized with scissors. Supernatant was collected and placed in a tube, on ice. Enough 1×TE Buffer needed for a dilution of 100 μL 1×TE buffer and 200 μL supernatant for each sample was prepared, and 4 mL of 1×TE buffer was prepared for the standards. 20×TE buffer was diluted 1:20 in diH20 to get 1×TE buffer. 1×TE buffer was then mixed with sample supernatants in separate 1.5 mL tubes. 100 μL of each sample was added to a 96-well plate, in triplicate. Standards were prepared by mixing the DNA working solution and the TE buffer to create 400 μL solutions with the following DNA concentrations: 2000 ng/mL, 1000 ng/mL, 500 ng/mL, 200 ng/mL, 100 ng/mL, 50 ng/mL, 20 ng/mL, and 0 ng/mL. Once samples were ready for analysis and the fluorescence plate reader was warmed and ready, PicoGreen stain was added to each sample. PicoGreen stain was prepared by making a 200-fold dilution of the stock PicoGreen stain in 1×TE Buffer for a final volume of 100 μL per sample plus 30%. The PicoGreen solution was protected from light and 100 μL of the diluted PicoGreen solution was added to each sample, then incubated at room temperature for 2-3 minutes. Fluorescence of samples was read using a plate-reader with 485 nm excitation and 538 nm emission. Fluorescence readings were converted into cell counts by using standard calculations to determine DNA content of each sample, which was then divided by 5.5 pg, which is the average mass of DNA in neurons (Moroz and Kohn 2013).
LDH assays were run on all samples and standards in duplicate, using a commercially available kit. An NADH standard was prepared using the stock NADH standard solution and the LDH assay buffer to achieve 50 μL each of the following concentrations: 0, 2.5, 5, 7.5, 10, and 12.5 nmole per 50 μL. 500 μL of LDH assay buffer was added to each sample for every 100 mg of tissue and samples were then homogenized with scissors, on ice, prior to centrifuging for 15 min at 10,000 xg and 4° C. 50 μL of the supernatant was added into wells in a 96 well plate (in duplicate) and LDH buffer was added to a total volume of 50 μL per well. For each reaction (sample and standards), 2 μL of LDH substrate mix was added to 48 μL of LDH assay buffer to create a Master Reaction Mix. 50 µL of reaction mix was added to each well and contents were mixed by pipetting up and down. […]

O=P(O)(O)C(Cl)(Cl)P(=O)(O)O [clodronic acid]
suitability to suppress microglial growth and activity (microglia [1]): found unacceptable

lipopolysaccharide [LPS]
microglia activation (microglia [2]): efficient to activate microglia

NC1=N[C@H](O)[C@H]2[C@H]3O[C@]4(O)O[C@@H]([C@@H](O)[C@@]2(N1)[C@@H]4O)[C@]3(O)CO [TTX, tetrodotoxin]
activity (LFP) [3]: blocked

CN1C(=O)C(Cc2c[nH]c3ccccc23)NC1=S (centres unmarked) [necrostatin-1, Necrostatin-1]
reactive species (ROS-RNS assay), differences between groups ([4]; 24 hours post-injury): No significant differences | LDH activity vs the two sham groups ([4]; ICH+nec-1): statistically higher levels of LDH activity | LDH activity ([4]; ICH+nec-1 vs ICH, 24 hours): slightly lower level | reactive species (ROS-RNS assay) ([4]; Sham+nec-1 compared to sham alone): significantly lower level of reactive species | total cell number / DNA content (DNA quantification) [4]: higher DNA content | total cell number / DNA content (DNA quantification) ([4]; listed as nec-1): significantly more cells were counted in nec-1 conditions | ROS / reactive species level vs untreated samples [4]: statistically significant decrease in the amount of reactive species | ROS / reactive species level vs untreated samples ([4]; listed as nec-1): significantly lower ROS levels | cell count and viability ([4]; sham+nec-1, 24 hours): highest cell count and viability after 24 hours

N#Cc1cc2c(cc1[N+](=O)[O-])=NC(=O)C(=O)N=2 [CNQX, 6-cyano-7-nitroquinoxaline-2,3-dione]
spontaneous and inducible activity (LFP) [3]: partially blocked

N[C@H](CCCP(=O)(O)O)C(=O)O [AP-5, (2R)-amino-5-phosphonopentanoate]
spontaneous and inducible activity (LFP) [3]: partially blocked

Source: patent publication US20250084380A1, “ARTIFICIAL BRAIN TISSUE” (priority 2016, published 2025)
